In PubChem BioAssay (NCI):
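Assay format: 96-well plates, 48-hour exposure. Here, GI50 denotes the concentration required for 50% inhibition of growth. TGI: concentration producing complete growth inhibition.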

Experiments:
Assay in all cases: NCI anticancer screen, dose series, 48 h
MALME-3M melanoma = test system: MALME-3M melanoma
SK-MEL-5 melanoma = test system: SK-MEL-5 melanoma
OVCAR-8 ovarian = test system: OVCAR-8 ovarian
HOP-62 NSCLC = test system: HOP-62 NSCLC
MDA-MB-435 = test system: MDA-MB-435
NCI-H226 lung = test system: NCI-H226 lung
LOX IMVI melanoma = test system: LOX IMVI melanoma
NCI/ADR-RES ovarian = test system: NCI/ADR-RES ovarian
HS 578T breast = test system: HS 578T breast
HL-60(TB) leukemia = test system: HL-60(TB) leukemia
HCT-15 colon = test system: HCT-15 colon
KM12 colon = test system: KM12 colon
RPMI-8226 leukemia = test system: RPMI-8226 leukemia
T-47D breast = test system: T-47D breast
SK-MEL-2 melanoma = test system: SK-MEL-2 melanoma
HT29 colon = test system: HT29 colon
CCRF-CEM leukemia = test system: CCRF-CEM leukemia
M14 melanoma = test system: M14 melanoma
OVCAR-3 ovarian = test system: OVCAR-3 ovarian
CAKI-1 renal = test system: CAKI-1 renal
MDA-MB-231 breast = test system: MDA-MB-231 breast
OVCAR-5 ovarian = test system: OVCAR-5 ovarian
SNB-19 CNS = test system: SNB-19 CNS
DU-145 prostate = test system: DU-145 prostate
SN12C renal = test system: SN12C renal
786-0 renal = test system: 786-0 renal
A498 renal = test system: A498 renal
SR leukemia = test system: SR leukemia
SF-539 CNS = test system: SF-539 CNS
TK-10 renal = test system: TK-10 renal
NCI-H460 lung = test system: NCI-H460 lung
A549 NSCLC = test system: A549 NSCLC
UACC-257 melanoma = test system: UACC-257 melanoma
NCI-H522 lung = test system: NCI-H522 lung
SK-MEL-28 melanoma = test system: SK-MEL-28 melanoma
UO-31 renal = test system: UO-31 renal
U251 CNS = test system: U251 CNS
K-562 leukemia = test system: K-562 leukemia
SF-268 CNS = test system: SF-268 CNS
EKVX NSCLC = test system: EKVX NSCLC
SNB-75 CNS = test system: SNB-75 CNS
OVCAR-4 ovarian = test system: OVCAR-4 ovarian
ACHN renal = test system: ACHN renal
HCC-2998 colon = test system: HCC-2998 colon
BT-549 breast = test system: BT-549 breast
SK-OV-3 ovarian = test system: SK-OV-3 ovarian
MCF7 breast = test system: MCF7 breast
COLO 205 colon = test system: COLO 205 colon
UACC-62 melanoma = test system: UACC-62 melanoma
MOLT-4 leukemia = test system: MOLT-4 leukemia
SF-295 CNS = test system: SF-295 CNS
PC-3 prostate = test system: PC-3 prostate
SW-620 colon = test system: SW-620 colon
NCI-H23 lung = test system: NCI-H23 lung
RXF 393 renal = test system: RXF 393 renal
HOP-92 NSCLC = test system: HOP-92 NSCLC
IGROV1 ovarian = test system: IGROV1 ovarian

Cc1[nH]nc2ncc(C#Cc3cncc(C(=O)Nc4ccc(CN5CCN(C)CC5)c(C(F)(F)F)c4)c3)cc12
GI50 (MALME-3M melanoma): 65.4 nM | TGI (MALME-3M melanoma): 304 nM | GI50 (SK-MEL-5 melanoma): 308 nM | TGI (SK-MEL-5 melanoma): 12500 nM | GI50 (OVCAR-8 ovarian): 413 nM | GI50 (HOP-62 NSCLC): 366 nM | TGI (HOP-62 NSCLC): 8820 nM | GI50 (MDA-MB-435): 242 nM | TGI (MDA-MB-435): 21100 nM | GI50 (NCI-H226 lung): 124 nM | TGI (NCI-H226 lung): 953 nM | GI50 (LOX IMVI melanoma): 155 nM | TGI (LOX IMVI melanoma): 993 nM | GI50 (NCI/ADR-RES ovarian): 5770 nM | TGI (NCI/ADR-RES ovarian): > 25300 nM | GI50 (HS 578T breast): 87.2 nM | TGI (HS 578T breast): 929 nM | GI50 (HL-60(TB) leukemia): 280 nM | TGI (HL-60(TB) leukemia): 16900 nM | GI50 (HCT-15 colon): 288 nM | TGI (HCT-15 colon): 4040 nM | GI50 (KM12 colon): < 11.6 nM | GI50 (RPMI-8226 leukemia): 426 nM | GI50 (T-47D breast): 508 nM | TGI (T-47D breast): > 61900 nM | GI50 (SK-MEL-2 melanoma): 85.2 nM | TGI (SK-MEL-2 melanoma): 352 nM | GI50 (HT29 colon): 174 nM | TGI (HT29 colon): 8570 nM | GI50 (CCRF-CEM leukemia): 293 nM | TGI (CCRF-CEM leukemia): > 27500 nM | GI50 (M14 melanoma): 44.4 nM | TGI (M14 melanoma): 2070 nM | GI50 (OVCAR-3 ovarian): 401 nM | GI50 (CAKI-1 renal): 64.7 nM | TGI (CAKI-1 renal): 994 nM | GI50 (MDA-MB-231 breast): 78.9 nM | TGI (MDA-MB-231 breast): 737 nM | GI50 (OVCAR-5 ovarian): 418 nM | GI50 (SNB-19 CNS): 1030 nM | TGI (SNB-19 CNS): 13200 nM | GI50 (DU-145 prostate): 152 nM | GI50 (SN12C renal): 299 nM | TGI (SN12C renal): 11200 nM | GI50 (786-0 renal): 173 nM | TGI (786-0 renal): 1790 nM | GI50 (A498 renal): 218 nM | TGI (A498 renal): 1240 nM | GI50 (SR leukemia): 140 nM | GI50 (SF-539 CNS): 158 nM | TGI (SF-539 CNS): 1080 nM | GI50 (TK-10 renal): 441 nM | GI50 (NCI-H460 lung): 147 nM | TGI (NCI-H460 lung): 4640 nM | GI50 (A549 NSCLC): 453 nM | TGI (A549 NSCLC): > 100000 nM | GI50 (UACC-257 melanoma): 317 nM | GI50 (NCI-H522 lung): 124 nM | TGI (NCI-H522 lung): 4730 nM | GI50 (SK-MEL-28 melanoma): 212 nM | TGI (SK-MEL-28 melanoma): 3740 nM | GI50 (UO-31 renal): 326 nM | TGI (UO-31 renal): 1980 nM | GI50 (U251 CNS): 460 nM | TGI (U251 CNS): 28100 nM | TGI (K-562 leukemia): 2030 nM | GI50 (SF-268 CNS): 289 nM | GI50 (EKVX NSCLC): 294 nM | GI50 (SNB-75 CNS): 491 nM | TGI (SNB-75 CNS): 13600 nM | GI50 (OVCAR-4 ovarian): 582 nM | GI50 (ACHN renal): 126 nM | GI50 (HCC-2998 colon): 488 nM | GI50 (BT-549 breast): 301 nM | TGI (BT-549 breast): 7250 nM | GI50 (SK-OV-3 ovarian): 174 nM | TGI (SK-OV-3 ovarian): > 51800 nM | GI50 (MCF7 breast): 772 nM | TGI (MCF7 breast): > 100000 nM | GI50 (COLO 205 colon): 287 nM | TGI (COLO 205 colon): 1910 nM | GI50 (UACC-62 melanoma): 95.9 nM | TGI (UACC-62 melanoma): 704 nM | GI50 (MOLT-4 leukemia): 155 nM | GI50 (SF-295 CNS): 286 nM | GI50 (PC-3 prostate): 330 nM | TGI (PC-3 prostate): > 21800 nM | GI50 (SW-620 colon): 183 nM | TGI (SW-620 colon): 4380 nM | GI50 (NCI-H23 lung): 439 nM | TGI (NCI-H23 lung): > 100000 nM | GI50 (RXF 393 renal): 75.2 nM | TGI (RXF 393 renal): 600 nM | GI50 (HOP-92 NSCLC): 123 nM | TGI (HOP-92 NSCLC): 808 nM | GI50 (IGROV1 ovarian): 58.2 nM | TGI (IGROV1 ovarian): 1730 nM
